Reference: paper PMC9005681, “Use of AD Informer Set compounds to explore validity of novel targets in Alzheimer's disease pathology” (Alzheimer's & Dementia : Translational Research & Clinical …, 2022)
Where “and” joins values, the source holds several entries; their conditions need not be identical. Equal values may be shown once.

How the values were obtained:
Assay in all cases: PDSP GPCR panel primary binding assays at 10 μM
[1] = molecular target: T1, cloned human or rodent CNS receptors, channels, and transporters (PDSP panel) (Homo sapiens, UniProt P11229); details: M1, primary assay
T1 construct: expressed in transfected cells
T1 sequence (P11229 1-460): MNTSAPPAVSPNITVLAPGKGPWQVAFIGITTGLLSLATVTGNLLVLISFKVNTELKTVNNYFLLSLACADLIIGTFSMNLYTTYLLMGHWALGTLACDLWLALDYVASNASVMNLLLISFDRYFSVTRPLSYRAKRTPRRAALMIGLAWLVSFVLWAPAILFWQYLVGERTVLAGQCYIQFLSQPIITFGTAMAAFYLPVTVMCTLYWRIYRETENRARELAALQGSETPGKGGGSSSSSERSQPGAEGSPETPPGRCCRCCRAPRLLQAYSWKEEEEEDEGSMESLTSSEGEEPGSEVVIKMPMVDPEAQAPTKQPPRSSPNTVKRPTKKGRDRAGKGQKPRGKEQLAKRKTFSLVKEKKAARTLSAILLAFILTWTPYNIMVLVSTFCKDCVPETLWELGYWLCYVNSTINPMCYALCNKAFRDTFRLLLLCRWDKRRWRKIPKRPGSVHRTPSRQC
Summary of the method: (§1)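 Each compound is first screened once at 10 μM, in quadruplicate, for radioligand displacement. Where mean displacement passes 50%, an 11-point dose-response in triplicate follows at that target, except at H3, PBR and GABAA.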

[2] = molecular target: T2, cloned human or rodent CNS receptors, channels, and transporters (PDSP panel) (Homo sapiens, UniProt P34969); details: 5-HT7A, primary assay
T2 construct: expressed in transfected cells
Summary of the method: as §1

[3] = molecular target: T3, cloned human or rodent CNS receptors, channels, and transporters (PDSP panel) (Rattus norvegicus, UniProt P16257); details: PBR, primary assay
T3 construct: expressed in transfected cells
Summary of the method: as §1

[4] = tested on: cloned human or rodent CNS receptors, channels, and transporters (PDSP panel); details: primary assay; for Mean %: mean inhibition; for Inhibition 1: replicate 1; for Inhibition 2: replicate 2; for Inhibition 3: replicate 3; for Inhibition 4: replicate 4
Summary of the method: as §1

[5] = molecular target: T4, cloned human or rodent CNS receptors, channels, and transporters (PDSP panel) (Homo sapiens, UniProt P21918); details: D5, primary assay
T4 construct: expressed in transfected cells
Summary of the method: as §1

[6] = molecular target: T5, cloned human or rodent CNS receptors, channels, and transporters (PDSP panel) (Homo sapiens, UniProt P21728); details: D1, primary assay
T5 construct: expressed in transfected cells
Summary of the method: as §1

[7] = molecular target: T6, cloned human or rodent CNS receptors, channels, and transporters (PDSP panel) (Homo sapiens, UniProt P35367); details: H1, primary assay
T6 construct: expressed in transfected cells
Summary of the method: as §1

[8] = molecular target: T7, cloned human or rodent CNS receptors, channels, and transporters (PDSP panel) (Homo sapiens, UniProt P41145); details: KOR, primary assay
T7 construct: expressed in transfected cells
Summary of the method: as §1

[9] = molecular target: T8, cloned human or rodent CNS receptors, channels, and transporters (PDSP panel) (Homo sapiens, UniProt P14416); details: D2, primary assay
T8 construct: expressed in transfected cells
Summary of the method: as §1

[10] = molecular target: T9, cloned human or rodent CNS receptors, channels, and transporters (PDSP panel) (Homo sapiens, UniProt P28223); details: 5-HT2A, primary assay
T9 construct: expressed in transfected cells
Summary of the method: as §1

T8 sequence (P14416 whole entry): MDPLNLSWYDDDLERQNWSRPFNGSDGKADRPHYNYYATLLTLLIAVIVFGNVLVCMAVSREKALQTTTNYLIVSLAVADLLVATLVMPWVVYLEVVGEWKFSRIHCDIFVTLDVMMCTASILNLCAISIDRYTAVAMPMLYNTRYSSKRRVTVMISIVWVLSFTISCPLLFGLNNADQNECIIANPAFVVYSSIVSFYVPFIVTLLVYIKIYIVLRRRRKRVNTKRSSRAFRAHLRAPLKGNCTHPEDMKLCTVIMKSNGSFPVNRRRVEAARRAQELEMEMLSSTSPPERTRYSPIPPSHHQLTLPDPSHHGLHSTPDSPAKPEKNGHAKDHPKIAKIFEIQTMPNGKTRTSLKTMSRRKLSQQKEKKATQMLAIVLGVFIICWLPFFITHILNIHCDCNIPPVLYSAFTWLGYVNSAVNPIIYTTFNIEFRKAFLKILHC
T6 sequence (P35367 whole entry): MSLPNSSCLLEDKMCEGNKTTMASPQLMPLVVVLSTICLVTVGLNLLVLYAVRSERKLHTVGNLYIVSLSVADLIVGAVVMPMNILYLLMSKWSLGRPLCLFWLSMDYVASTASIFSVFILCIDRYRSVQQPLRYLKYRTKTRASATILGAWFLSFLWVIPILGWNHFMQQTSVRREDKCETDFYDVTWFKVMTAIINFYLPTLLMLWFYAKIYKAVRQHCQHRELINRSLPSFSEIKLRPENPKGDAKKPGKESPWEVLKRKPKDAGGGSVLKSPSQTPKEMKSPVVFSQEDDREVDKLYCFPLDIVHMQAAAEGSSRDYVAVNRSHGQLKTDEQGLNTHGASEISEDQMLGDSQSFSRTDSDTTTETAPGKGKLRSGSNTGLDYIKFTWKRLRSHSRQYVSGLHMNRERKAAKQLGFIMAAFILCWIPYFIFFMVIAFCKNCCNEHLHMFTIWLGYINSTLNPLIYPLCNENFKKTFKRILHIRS
T2 sequence (P34969 whole entry): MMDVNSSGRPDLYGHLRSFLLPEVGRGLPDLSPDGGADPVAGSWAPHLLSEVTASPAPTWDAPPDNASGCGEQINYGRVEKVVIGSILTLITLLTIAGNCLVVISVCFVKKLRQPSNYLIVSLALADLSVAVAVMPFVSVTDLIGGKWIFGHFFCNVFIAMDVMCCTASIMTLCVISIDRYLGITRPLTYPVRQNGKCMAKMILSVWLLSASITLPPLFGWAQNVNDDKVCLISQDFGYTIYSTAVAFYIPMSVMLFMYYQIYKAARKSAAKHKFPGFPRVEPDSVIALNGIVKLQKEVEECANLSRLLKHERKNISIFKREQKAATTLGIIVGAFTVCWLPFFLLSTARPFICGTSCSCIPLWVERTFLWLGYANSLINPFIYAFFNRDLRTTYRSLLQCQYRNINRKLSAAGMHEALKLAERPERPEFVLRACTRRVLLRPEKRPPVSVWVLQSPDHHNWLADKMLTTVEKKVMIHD
T7 sequence (P41145 whole entry): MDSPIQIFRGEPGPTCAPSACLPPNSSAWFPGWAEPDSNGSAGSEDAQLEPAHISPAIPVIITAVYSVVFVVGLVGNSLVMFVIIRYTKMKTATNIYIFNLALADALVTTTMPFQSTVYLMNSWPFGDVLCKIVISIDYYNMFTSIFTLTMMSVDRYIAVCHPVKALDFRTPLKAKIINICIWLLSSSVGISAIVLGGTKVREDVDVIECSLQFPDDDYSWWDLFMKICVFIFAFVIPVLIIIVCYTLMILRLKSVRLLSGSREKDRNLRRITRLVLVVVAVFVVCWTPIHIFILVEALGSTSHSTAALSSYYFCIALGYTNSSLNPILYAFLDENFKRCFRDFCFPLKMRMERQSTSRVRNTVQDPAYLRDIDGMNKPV
T9 sequence (P28223 whole entry): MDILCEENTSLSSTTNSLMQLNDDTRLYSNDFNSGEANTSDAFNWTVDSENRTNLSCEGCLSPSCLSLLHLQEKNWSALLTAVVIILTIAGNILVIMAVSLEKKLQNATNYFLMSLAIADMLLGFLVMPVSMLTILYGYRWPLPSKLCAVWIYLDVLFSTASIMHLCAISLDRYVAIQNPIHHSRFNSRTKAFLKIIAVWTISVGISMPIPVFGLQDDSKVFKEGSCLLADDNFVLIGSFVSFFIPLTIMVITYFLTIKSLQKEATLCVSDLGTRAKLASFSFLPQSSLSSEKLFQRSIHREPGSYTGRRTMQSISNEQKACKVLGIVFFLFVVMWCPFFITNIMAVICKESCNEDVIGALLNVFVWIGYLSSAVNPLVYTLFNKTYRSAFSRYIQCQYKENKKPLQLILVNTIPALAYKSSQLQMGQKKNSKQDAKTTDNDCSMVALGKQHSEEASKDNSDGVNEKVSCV
T4 sequence (P21918 whole entry): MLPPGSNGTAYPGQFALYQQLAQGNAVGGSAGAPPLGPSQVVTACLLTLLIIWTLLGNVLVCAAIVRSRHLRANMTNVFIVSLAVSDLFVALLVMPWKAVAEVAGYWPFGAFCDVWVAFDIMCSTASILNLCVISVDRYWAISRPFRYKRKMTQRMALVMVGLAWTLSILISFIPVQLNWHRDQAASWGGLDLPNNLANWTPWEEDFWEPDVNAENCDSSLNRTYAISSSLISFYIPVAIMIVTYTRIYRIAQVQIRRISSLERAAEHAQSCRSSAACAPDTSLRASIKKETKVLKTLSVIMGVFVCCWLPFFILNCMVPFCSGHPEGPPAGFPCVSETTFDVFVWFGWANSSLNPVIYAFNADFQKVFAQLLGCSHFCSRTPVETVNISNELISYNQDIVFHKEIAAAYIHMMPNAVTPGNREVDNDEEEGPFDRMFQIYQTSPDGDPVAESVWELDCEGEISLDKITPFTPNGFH
T5 sequence (P21728 whole entry): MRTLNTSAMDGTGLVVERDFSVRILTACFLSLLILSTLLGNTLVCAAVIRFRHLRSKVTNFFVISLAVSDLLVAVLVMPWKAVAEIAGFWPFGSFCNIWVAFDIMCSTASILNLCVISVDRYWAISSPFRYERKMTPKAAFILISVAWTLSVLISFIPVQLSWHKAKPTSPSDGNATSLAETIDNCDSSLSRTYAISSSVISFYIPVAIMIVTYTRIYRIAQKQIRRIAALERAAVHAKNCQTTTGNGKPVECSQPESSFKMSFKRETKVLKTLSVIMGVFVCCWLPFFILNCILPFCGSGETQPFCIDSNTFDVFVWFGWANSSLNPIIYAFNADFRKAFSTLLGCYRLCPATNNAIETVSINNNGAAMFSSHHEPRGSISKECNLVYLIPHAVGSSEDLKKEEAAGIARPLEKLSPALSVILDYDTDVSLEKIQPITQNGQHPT

Mean % ([1]; mean inhibition): -5.74% | Inhibition 1 ([1]; replicate 1): 6.11% | Inhibition 2 ([1]; replicate 2): -4.99% | Inhibition 3 ([1]; replicate 3): -11.01% | Inhibition 4 ([1]; replicate 4): -13.08% | Mean % ([2]; mean inhibition): 35.21% | Inhibition 1 ([2]; replicate 1): 10.61% | Inhibition 2 ([2]; replicate 2): 51.06% | Inhibition 3 ([2]; replicate 3): 19.91% | Inhibition 4 ([2]; replicate 4): 59.27% | Mean % ([3]; mean inhibition): 61.99% and 50.52% | Inhibition 1 ([3]; replicate 1): 64.51% and 57.62% | Inhibition 2 ([3]; replicate 2): 61.79% and 51.24% | Inhibition 3 ([3]; replicate 3): 61.7% and 45.98% | Inhibition 4 ([3]; replicate 4): 59.94% and 47.25% | Mean % ([4]; Alpha1A): -0.8% | Inhibition 1 ([4]; Alpha1A): -1.03% | Inhibition 2 ([4]; Alpha1A): -7.95% | Inhibition 3 ([4]; Alpha1A): -14.5% | Inhibition 4 ([4]; Alpha1A): 20.29% | Mean % ([4]; Alpha2A): -5.79% | Inhibition 1 ([4]; Alpha2A): -3.6% | Inhibition 2 ([4]; Alpha2A): -9.38% | Inhibition 3 ([4]; Alpha2A): -7.24% | Inhibition 4 ([4]; Alpha2A): -2.95% | Mean % ([4]; Alpha2C): 1.02% | Inhibition 1 ([4]; Alpha2C): 11.32% | Inhibition 2 ([4]; Alpha2C): 1.35% | Inhibition 3 ([4]; Alpha2C): -11.52% | Inhibition 4 ([4]; Alpha2C): 2.93% | Mean % ([4]; BZP Rat Brain Site): 4.01% | Inhibition 1 ([4]; BZP Rat Brain Site): 13.82% | Inhibition 2 ([4]; BZP Rat Brain Site): 5.95% | Inhibition 3 ([4]; BZP Rat Brain Site): -2.77% | Inhibition 4 ([4]; BZP Rat Brain Site): -0.97% | Mean % ([4]; DOR): 1.65% | Inhibition 1 ([4]; DOR): 14.12% | Inhibition 2 ([4]; DOR): -1.97% | Inhibition 3 ([4]; DOR): -1.78% | Inhibition 4 ([4]; DOR): -3.77% | Mean % ([4]; GABAA): -6.38% and -12.1% | Inhibition 1 ([4]; GABAA): -3.42% and -8.72% | Inhibition 2 ([4]; GABAA): -12.29% and -15.74% | Inhibition 3 ([4]; GABAA): -18.95% and -24.39% | Inhibition 4 ([4]; GABAA): 9.15% and 0.47% | Mean % ([4]; H3): 13.41% | Inhibition 1 ([4]; H3): 10.42% | Inhibition 2 ([4]; H3): 5.17% | Inhibition 3 ([4]; H3): 19.16% | Inhibition 4 ([4]; H3): 18.87% | Mean % ([4]; H4): -11.7% | Inhibition 1 ([4]; H4): -16.74% | Inhibition 2 ([4]; H4): -15.78% | Inhibition 3 ([4]; H4): -13.62% | Inhibition 4 ([4]; H4): -0.66% | Mean % ([4]; Sigma 1): 4.17% | Mean % ([4]; Sigma 2): -5.66% | Mean % ([5]; mean inhibition): -9.97% | Inhibition 1 ([5]; replicate 1): 0.61% | Inhibition 2 ([5]; replicate 2): -8.1% | Inhibition 3 ([5]; replicate 3): -21.39% | Inhibition 4 ([5]; replicate 4): -11% | Mean % ([6]; mean inhibition): 9.96% | Inhibition 1 ([6]; replicate 1): 12.39% | Inhibition 2 ([6]; replicate 2): 11.9% | Inhibition 3 ([6]; replicate 3): 10.77% | Inhibition 4 ([6]; replicate 4): 4.78% | Mean % ([7]; mean inhibition): 71.69% | Inhibition 1 ([7]; replicate 1): 93.05% | Inhibition 2 ([7]; replicate 2): 75.46% | Inhibition 3 ([7]; replicate 3): 68.14% | Inhibition 4 ([7]; replicate 4): 50.11% | Mean % ([8]; mean inhibition): -10.86% | Inhibition 1 ([8]; replicate 1): -18.36% | Inhibition 2 ([8]; replicate 2): -17.69% | Inhibition 3 ([8]; replicate 3): 0.34% | Inhibition 4 ([8]; replicate 4): -7.72% | Mean % ([9]; mean inhibition): -7.22% | Inhibition 1 ([9]; replicate 1): 3.31% | Inhibition 2 ([9]; replicate 2): -5.21% | Inhibition 3 ([9]; replicate 3): -10.66% | Inhibition 4 ([9]; replicate 4): -16.31% | Mean % ([10]; mean inhibition): -5.29% | Inhibition 1 ([10]; replicate 1): 5.24% | Inhibition 2 ([10]; replicate 2): -8.74% | Inhibition 3 ([10]; replicate 3): -13.01% | Inhibition 4 ([10]; replicate 4): -4.63%
SMILES: CNc1nc(C)nc(N[C@H]2CCC[C@@H](C(=O)NCc3ccc(C#N)cc3C(F)(F)F)C2)n1 [UNC10302679A, GSK2256294A]
